These results are taken from ChEMBL document CHEMBL1138966 (Bioorg Med Chem Lett, 2006).

SMILES strings stand for the structures. ≈ marks a conversion by molar mass, not a printed value.

One data set concerns MT4. Description: Cytotoxicity against MT4 cells. Type of data set: functional. The following applies: Homo sapiens.
Data set [1] deals with Human immunodeficiency virus type 1 integrase (Human immunodeficiency virus 1, UniProt Q7ZJM1). Description: Inhibition of strand transfer activity of HIV integrase.
Human immunodeficiency virus type 1 integrase, sequence (Q7ZJM1 whole entry): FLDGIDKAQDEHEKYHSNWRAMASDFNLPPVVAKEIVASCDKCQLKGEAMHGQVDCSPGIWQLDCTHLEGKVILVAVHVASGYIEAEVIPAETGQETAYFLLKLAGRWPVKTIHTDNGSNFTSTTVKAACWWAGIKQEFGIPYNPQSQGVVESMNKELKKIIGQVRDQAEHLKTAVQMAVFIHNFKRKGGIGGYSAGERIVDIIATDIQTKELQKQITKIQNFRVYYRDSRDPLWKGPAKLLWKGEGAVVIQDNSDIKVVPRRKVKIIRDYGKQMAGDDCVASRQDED
The subject of data set [2] is Human immunodeficiency virus 1. Description: Antiviral activity against HIV1 3B in MT4 cells. It is filed as functional, organism-based. The following applies: Human immunodeficiency virus 1, 3B.
Another data set can be described thus: physchem. The following applies: buffer, pH 7.3.
The subject of data set [3] is Human immunodeficiency virus 1. Description: Antiviral activity against HIV1 3B in MT2 cells. It is filed as functional, organism-based. The settings on record: Human immunodeficiency virus 1, 3B.
In data set [4] the test system is Human immunodeficiency virus 1. Description: Antiviral activity against HIV1 3B assessed as protein binding effect in MT2 cells. Type of data set: functional, organism-based. The following applies: Human immunodeficiency virus 1, 3B.
For data set [5] the following is noted: buffer, pH 7.3.

A word on the CC50: it is the concentration that lowers cell viability or growth by half. Read a low CC50 as harm at low concentration. By IC50 is commonly meant the concentration that gives 50% inhibition. A higher IC50 goes with lower potency. The term EC50 denotes the concentration at which the effect is half-maximal. As to `COc1c2c(c(O)c3ncccc13)C(=O)N(Cc1ccc(F)cc1)C2`, the CC50 with MT4 came out at 5100 nM. In data set [1], this molecule displayed an IC50 of 50 nM. In data set [2], a half-maximal effect (EC50) was put at 89 nM.
In data set [1], `O=C(NCc1ccc(F)cc1)c1ccc2cccnc2c1O` yielded an IC50 of 2000 nM. The molecule further yielded a 50% effective concentration (EC50) in data set [2] of over 10000 nM.
As usually defined, the solubility is how much of the substance goes into solution per volume. Low values mean a poorly soluble substance, high ones a readily soluble substance. Consider `O=C1c2c(c(C(=O)N3CCOCC3)c3cccnc3c2O)CN1Cc1ccc(F)cc1`, for which it took 4000 nM to reach half-maximal cytotoxicity with MT4 (CC50). The same molecule returned an IC50 in data set [1] of 36 nM. Moreover, the concentration in solution in the data set “physchem” (solubility) came to 97 µM (≈ 40.9 µg/mL). Moreover, the EC50 was determined as 3.4 nM in data set [3] and 54 nM in data set [4].
In the data set on MT4, `CN(C)C(=O)Oc1c2c(c(O)c3ncccc13)C(=O)N(Cc1ccc(F)cc1)C2` registered a cytotoxic concentration (CC50) of 1500 nM. In data set [1], this molecule came in with an IC50 of 760 nM. This molecule also had an EC50 in data set [2] of 3 nM.
Turning to `O=C(NCc1ccccn1)c1c2c(c(O)c3ncccc13)C(=O)N(Cc1ccc(F)cc1)C2`, half-maximal cytotoxicity with MT4 (CC50) was put at 1600 nM. The molecule further registered an IC50 in data set [1] of 190 nM. Moreover, in “physchem”, the concentration in solution (solubility) came to 36 µM (≈ 15.9 µg/mL). In addition, the EC50 amounted to 9.8 nM in data set [3] and 94 nM in data set [4].
With `CCOC(=O)c1cccc(-c2c3c(c(O)c4ncccc24)C(=O)N(Cc2ccc(F)cc2)C3)c1`, the CC50 with MT4 came out at 1000 nM. Further, the IC50 in data set [1] turned out to be 2100 nM. Moreover, in data set [2], the response was half-maximal at 340 nM (EC50).
On to `O=C1c2c(cc3cccnc3c2O)CN1Cc1ccc(F)cc1`, for which the IC50 is 70 nM in data set [1] and 100 nM in data set [2].
Take `CN(C)C(=O)Oc1c2c(c(O)c3ncccc13)C(=O)N(Cc1ccc(F)cc1)C2=O`: it took 22000 nM to reach half-maximal cytotoxicity in the data set on MT4 (CC50). The values for the IC50 in data set [1] and in data set [2] were 2400 nM and 1180 nM, respectively. For the same molecule, in “physchem”, the solubility turned out to be 2.5 µM (≈ 1.02 µg/mL).
In the case of `COc1c2c(c(O)c3ncccc13)C(=O)N(Cc1ccc(F)cc1)C2=O`, the CC50 in the data set on MT4 turned out to be 19000 nM. In data set [1], the IC50 is 80 nM. In the data set “physchem”, this molecule had a solubility of under 1.4 µM. The EC50 in data set [2] was determined as 7500 nM.
`CCOc1ccc(-c2c3c(c(O)c4ncccc24)C(=O)N(Cc2ccc(F)cc2)C3)cc1` returned a CC50 with MT4 of 1000 nM. This molecule also came in with a half-inhibitory concentration (IC50) in data set [1] of 1200 nM. This molecule yielded an EC50 in data set [2] of 780 nM.
For `CCOC(=O)c1ccccc1-c1c2c(c(O)c3ncccc13)C(=O)N(Cc1ccc(F)cc1)C2` the same measures were 400 nM, 350 nM and 70 nM.
In the case of `O=C1c2c(c(-c3c(F)cccc3F)c3cccnc3c2O)CN1Cc1ccc(F)cc1`, the CC50 in the data set on MT4 amounted to 300 nM. This molecule displayed an IC50 in data set [1] of 335 nM. In data set [2], this molecule had a 50% effective concentration (EC50) of 11 nM.
The molecule `O=C(NCc1ccc(F)cc1)c1nc(N2CCCCS2(=O)=O)c2cccnc2c1O` had a CC50 in the data set on MT4 of 1500 nM. In addition, in data set [1], the IC50 is 50 nM. The EC50 in data set [3] turned out to be 3.8 nM; in data set [4], 88 nM. For the same molecule, the solubility in data set [5] was determined as 7.2 µM (≈ 3.1 µg/mL).
